# Laboratory results: patent US7585859B2, “PDE4B inhibitors and uses therefor” (Plexxikon, Inc., priority 2004, dated 2009)
# Read-outs that look alike come from different tables or passages of the source.
# Legend:
# PDE4D = molecular target: T1, PDE4D (Homo sapiens, UniProt Q08499); experiment: PDE4 IC50 determination by Scintillation Proximity Assay, PDE4D; type: biochemical
# T1 construct: PDE4D: The catalytic domain of human PDE4B from S3 16-V692; His6 (N); thrombin cleavage site (N); made in house; host or cells: E. coli
# T1 sequence (Q08499 380-756): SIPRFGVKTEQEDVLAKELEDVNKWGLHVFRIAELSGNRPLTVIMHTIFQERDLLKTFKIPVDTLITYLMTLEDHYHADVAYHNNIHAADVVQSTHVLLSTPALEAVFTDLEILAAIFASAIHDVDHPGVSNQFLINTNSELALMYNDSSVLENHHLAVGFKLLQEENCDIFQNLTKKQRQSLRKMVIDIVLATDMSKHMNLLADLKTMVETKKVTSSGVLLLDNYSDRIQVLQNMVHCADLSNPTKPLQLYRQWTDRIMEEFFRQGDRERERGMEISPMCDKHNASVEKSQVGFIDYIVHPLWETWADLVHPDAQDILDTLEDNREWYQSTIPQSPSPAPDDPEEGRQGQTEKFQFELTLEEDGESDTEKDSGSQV
# Procedure, shortened: (§1)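 Enzyme was added to compound and [^3H]cAMP, then incubated 30 min at 30° (PDE4B 80 ng/ml; PDE4D 4 ng/ml). Product [^3H]AMP bound to SPA beads and was counted. IC50 was fitted by non-linear regression against DMSO and roflumilast controls.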
# [1] = molecular target: T2, PDE4B: The catalytic domain of human PDE4B from S152-S528 (Homo sapiens, UniProt Q07343); experiment: PDE4 IC50 determination by Scintillation Proximity Assay, PDE4B; type: biochemical
# T2 construct: His6 (N); thrombin cleavage site (N); made in house; host or cells: E. coli
# T2 sequence (Q07343 with tags, fused parts or gaps): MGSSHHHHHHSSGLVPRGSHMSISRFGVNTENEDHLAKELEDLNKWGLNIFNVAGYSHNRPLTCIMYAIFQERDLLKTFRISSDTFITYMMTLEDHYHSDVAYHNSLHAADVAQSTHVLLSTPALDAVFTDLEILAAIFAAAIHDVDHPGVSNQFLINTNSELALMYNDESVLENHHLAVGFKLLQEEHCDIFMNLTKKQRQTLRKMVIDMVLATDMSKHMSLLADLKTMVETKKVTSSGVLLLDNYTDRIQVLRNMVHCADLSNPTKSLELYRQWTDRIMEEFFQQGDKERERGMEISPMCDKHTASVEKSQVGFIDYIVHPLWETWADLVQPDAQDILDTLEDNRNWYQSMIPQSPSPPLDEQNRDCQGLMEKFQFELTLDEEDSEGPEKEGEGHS
# Procedure, shortened: as §1
# [2] = test system: TNF alpha production in LPS-stimulated human blood (Buffy coat); experiment: TNF alpha production by stimulation with LPS in whole blood cultures; type: cell-based
# Method: Compounds were assayed to generate IC50 numbers as described in Example 54, using the following assay protocol (see Tables 3B and 4B for compounds and results).
# Protocol • 1) Obtained 20 mM DMSO aliquots of desired concentrations of compounds (see Tables 3B and 4B for compounds tested and results). Placed 2 μl/well compound in DMSO in the top row of the dilution plate. Added 98 μl of RPMI 1640 media w/2.5% heat inactivated FBS.
# 2) Made the same media with 2% DMSO in it. Added 60 μl/well to well to make compound titration. Took 30 μl of top row and did a 1:3 dilution down the plate. In column 11 added 4 wells of 50 μM roflumilast and piclamilast. In column 12 added 2% DMSO media.
# 3) Transfered 20 μl/well into assay plates in duplicate.
# 4) Obtained human Buffy coat.
# 5) Diluted blood with 7 volumes of RPMI 1640 media with 1% P/S and 2.5% heat inactivated FBS (a 1:8 dilution)
# 6) Added160 μl/well of diluted blood to the assay plates.
# 7) Incubated for 1 hour at 37 degrees 5% CO2
# 8) Diluted LPS (which was already diluted to 1 mg/ml in PBS, 20 μl aliquots frozen −20 C.) to 10× desired final concentration to make a […] dilution (final concentration should be 100 ng/ml).
# 9) After 1 hour incubation added 20 μl/well of LPS to plates. A non-LPS treated background was also prepared. Samples were put on the shaker for a one minute 900 rpm.
# 10) Incubated for 4 hours in incubator.
# 11) After incubation, put on the shaker for a one minute 900 rpm and spun plate at 100 g for 10 minutes, Decel 5.
# 12) Carefully pipetted the top 75 μl supernatant into a new plate. Samples were frozen as needed.
# Biosource hu-TNF ALPHA ELISA
# • REAGENTS USED • DPBS 10×: VWR45000-428 (dilute 1:10 with Millipore Water) • TWEEN 20: FISHER BP337-500 • CAPTURE AND DETECTION ANTIBODIES: R&D DY510E • STREP-HRP: Biosource part SNN4004X • COLOR REAGENTS: R&D DY994 • STOP SOLUTION: from chemistry, or R&D DY999 • 1) Thawed samples to RT as needed. • 2) Added 50 μl Incubation buffer/well. • 3) Added 50 μl blood samples +50 μl Diluent buffer • 4) Incubated 2 hours at room temp. • 5) Washed the plate 4× with 300 μl/well wash buffer with microfill. Wash buffer was DPBS with 0.05% Tween pH 7.2-7.4 • 6) Added 100 μl biotinylated anti-TNFalpha • 7) Incubateed 1 hours at room temp. • 8) Washed the plate 4× with 300 μl/well wash buffer with microfill. Wash buffer was DPBS with 0.05% Tween pH 7.2-7.4 • 9) Added^100 μl Streptavidin-HRP working solution • 10) Incubated for 30 minutes at room temp. • 11) Washed the plate 4× with 300 μl/well wash buffer with microfill. Wash buffer was DPBS with 0.05% Tween pH 7.2-7.4 • 12) Added 100 μl Chromagen • 13) Incubated in the dark for 30 minutes until the blue color developed satisfactorily. • 14) Added 100 μl/well stop solution (2 N H2SO4). • 15) Read plate on WallacVictor at 450 nm for 0.1 sec/well
# [3] = molecular target: T3, full-length human PDE4B2 isozyme (Homo sapiens, UniProt Q07343); experiment: PDE4 IC50 determination by Scintillation Proximity Assay, PDE4B2; type: biochemical
# T3 construct: The full-length human PDE4B2 isozyme; His6 (N); TEV cleavage site (N); made in house; host or cells: baculovirus infected insect cells (unpurified lysate)
# T3 sequence (Q07343 1-564 isoform Q07343-2): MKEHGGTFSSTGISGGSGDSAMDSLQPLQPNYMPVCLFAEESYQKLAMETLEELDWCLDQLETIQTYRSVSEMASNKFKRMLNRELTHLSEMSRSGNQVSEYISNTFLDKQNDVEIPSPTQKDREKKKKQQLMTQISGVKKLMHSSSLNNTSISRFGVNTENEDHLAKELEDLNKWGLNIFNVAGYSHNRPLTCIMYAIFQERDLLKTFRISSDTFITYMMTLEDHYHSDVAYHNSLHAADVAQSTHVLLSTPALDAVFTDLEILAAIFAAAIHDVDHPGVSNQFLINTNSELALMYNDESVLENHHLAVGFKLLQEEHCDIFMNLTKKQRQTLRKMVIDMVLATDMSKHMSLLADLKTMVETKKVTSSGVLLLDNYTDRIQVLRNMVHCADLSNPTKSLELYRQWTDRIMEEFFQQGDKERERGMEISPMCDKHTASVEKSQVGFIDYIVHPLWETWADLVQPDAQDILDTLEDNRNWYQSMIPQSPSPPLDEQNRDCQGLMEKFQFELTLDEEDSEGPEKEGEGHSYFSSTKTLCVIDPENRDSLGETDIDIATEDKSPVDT
# Procedure, shortened: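 Unpurified His6-TEV-tagged full-length human PDE4B2 from baculovirus-infected insect cell lysate (2.5 μl of 50% glycerol stock/ml) hydrolysed [3H]cAMP in 50 mM Tris pH 7.5, 8.3 mM MgCl, 1.7 mM EGTA, 0.01% BSA for 30 min at 30°. Stopped with SPA beads in 18 mM ZnSO4; [3H]AMP scintillation counted, IC50 by non-linear regression.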
# [4] = molecular target: T4, full-length human PDE4D5 isozyme (Homo sapiens, UniProt Q08499); experiment: PDE4 IC50 determination by Scintillation Proximity Assay, PDE4D5; type: biochemical; details: Table 1B, Formula I compounds; read-out: IC50 PDE4D5
# T4 construct: The full-length human PDE4D5 isozyme; His6 (N); TEV cleavage site (N); made in house; host or cells: baculovirus infected insect cells (unpurified lysate)
# T4 sequence (Q08499 1-745 isoform Q08499-6): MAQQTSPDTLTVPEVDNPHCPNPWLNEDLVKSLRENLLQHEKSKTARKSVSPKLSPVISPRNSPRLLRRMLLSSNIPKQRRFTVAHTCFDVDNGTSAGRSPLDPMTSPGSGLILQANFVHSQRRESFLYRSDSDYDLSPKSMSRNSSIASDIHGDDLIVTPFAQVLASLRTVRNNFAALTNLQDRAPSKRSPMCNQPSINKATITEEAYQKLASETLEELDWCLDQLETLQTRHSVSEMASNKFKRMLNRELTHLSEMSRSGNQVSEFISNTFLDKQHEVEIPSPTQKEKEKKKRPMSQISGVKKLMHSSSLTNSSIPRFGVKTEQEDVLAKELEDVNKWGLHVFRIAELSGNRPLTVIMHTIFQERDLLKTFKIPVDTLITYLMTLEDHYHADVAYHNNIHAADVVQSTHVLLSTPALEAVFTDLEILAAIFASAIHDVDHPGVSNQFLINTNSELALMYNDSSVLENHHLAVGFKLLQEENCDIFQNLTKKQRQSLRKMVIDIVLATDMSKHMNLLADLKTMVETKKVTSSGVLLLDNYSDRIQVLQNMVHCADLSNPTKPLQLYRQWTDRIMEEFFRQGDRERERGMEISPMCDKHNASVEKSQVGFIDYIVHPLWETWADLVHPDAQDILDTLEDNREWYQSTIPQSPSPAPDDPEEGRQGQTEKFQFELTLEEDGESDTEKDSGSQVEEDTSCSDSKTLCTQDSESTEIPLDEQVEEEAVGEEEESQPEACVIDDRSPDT
# Procedure, shortened: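 Unpurified His6-tagged full-length human PDE4D5 from baculovirus-infected insect cell lysate, 0.083 μl glycerol stock/ml, hydrolysed [3H]cAMP in Tris pH 7.5/MgCl/EGTA buffer, 30 min at 30°. ZnSO4/SPA beads stop; [3H]AMP counted. Controls: DMSO and roflumilast; 11-point duplicate curves, nonlinear-regression IC50.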
# [5] = test system: TNFα levels in serum of LPS-challenged rats; experiment: Rat inhibition studies: serum TNFα after iv LPS challenge; type: in vivo; details: 2 h, 2 hr challenge delay, read-out: % inhibition r TNFα
# Method: All studies were done with male rats CD (SD) IGS BR (Crl) (Charles River, France), which were grouped in to 5 animal groups.
# At the end of the acclimatization period, the non-fasted rats were weighed, individually identified on the tail with a permanent marker and administered by oral (po) or interperitoneal (ip) route with either vehicle, reference or test compound in a volume of 10 mL/kg adapted to the body weight. The animals were gathered in groups of 5 animals in a polystyrene labeled cage with sawdust covered floors. 2-hours after vehicle, reference or test substance administration, rats received an intravenous (iv) injection of 0.1 mg/kg LPS in a volume of 1 mL/kg of body weight. 2 h after LPS challenge (or as indicated in Tables 3B and 4B), blood samples were collected into tubes without anticoagulant by retro-orbital puncture under gas (isoflurane) anesthesia. Samples were allowed to clot at room temperature for 5 to 10 min then put on ice until there were prepared by centrifugation (6000×g for 3 min at 4° C.) and stored at −20° C. until use. TNFα levels were measured in serum samples in duplicate by ELISA technique according to the manufacturer's procedure (Rat TNFα kit Quantikine M (RTA00, R&D System, France)). Data are reported as percent decrease in observed TNFα levels versus TNFa levels observed for vehicle dosed animal groups.
# [6] = second part of Table 2B (2-23 to 2-103), column 5, column is PDE4D in first part, read-out: IC 50 vs. indicated assay h TNFα
# [7] = second part of Table 2B (2-23 to 2-103), column 3, column is PDE4B in first part, read-out: IC 50 vs. indicated assay h TNFα
# [8] = human whole blood, LPS 100 ng/ml, read-out: IC 50 vs. indicated assay h TNFα
# [9] = second part of Table 2B (2-23 to 2-103), column 4, column is PDE4B2 in first part, read-out: IC 50 vs. indicated assay h TNFα
# [10] = Table 1B, Formula I compounds, read-out: IC50 PDE4D
# [11] = Table 1B, Formula I compounds, read-out: IC50 PDE4B
# [12] = Table 1B, Formula I compounds, read-out: IC50 PDE4B2
# [13] = Homo sapiens, Table 1B, Formula I compounds, read-out: IC50 h TNFα
# [14] = po, rat in vivo inhibition assay, 100 mg/kg po
"IC50 [2, 13]",SMILES,IC50 [4],IC50 (PDE4D; [10]),"IC50 [1, 11]","IC50 [3, 12]",other results
–,"Nc1nc(NC2CCCC2)sc1C(=O)c1ccc(Oc2ccccc2)cc1 [Compound 2-76, (4-Amino-2-cyclopentylamino-thiazol-5-yl)-(4-phenoxy-phenyl)-methanone]",–,–,–,–,"IC50 (PDE4D; [6]): < 10 µM; IC50 [1, 7]: < 10 µM; IC50 [2, 8]: > 10 µM; IC50 [3, 9]: < 10 µM"
–,"CSc1cccc(Nc2sc(C(=O)c3ccccc3)c(N)c2C#N)c1 [Compound 1-169, 4-Amino-5-benzoyl-2-(3-methylsulfanyl-phenylamino)-thiophene-3-carbonitrile]",< 10 µM,< 10 µM,< 10 µM,< 10 µM,"inhibition in vivo at 70 mg ([5]; rat, 70 mg, po): > 20%"
> 10 µM,"NC(=O)c1c(N)sc(C(=O)c2cc(-c3ccccc3)no2)c1N [Compound 1-255, 2,4-Diamino-5-(3-phenyl-isoxazole-5-carbonyl)-thiophene-3-carboxylic acid amide]",> 10 µM,–,–,> 10 µM,–
> 10 µM,"CCC(C)Nc1sc(C(=O)c2cc(-c3ccc(Cl)c(Cl)c3)no2)c(N)c1C(N)=O (stereo not shown) [Compound 1-249, 4-Amino-2-sec butylamino-5-[3-(3,4-dichloro-phenyl)-isoxazole-5-carbonyl]-thiophene-3-carboxylic acid amide]",> 10 µM,< 10 µM,< 10 µM,–,–
> 10 µM,"CCc1c(NC2CCCC2)sc(C(=O)c2cc(-c3ccccc3)no2)c1N [Compound 1-241, (3-Amino-5-cyclopentylamino-4-ethyl-thiophen-2-yl)-(3-phenyl-isoxazole-5-yl)-methanone]",> 10 µM,–,< 10 µM,< 10 µM,–
–,"N#Cc1c(Nc2ccc(Oc3ccccc3)cc2)sc(C(=O)c2ccccc2Cl)c1N [Compound 1-161, 4-Amino-5-(2-chloro-benzoyl)-2-(4-phenoxy-phenylamino)-thiophene-3-carbonitrile]",< 10 µM,> 10 µM,< 10 µM,< 10 µM,"inhibition in vivo at 90 mg ([5]; rat, ip): > 20%; inhibition in vivo at 90 mg ([5]; rat, po): < 20%"
–,"COc1cccc(C(=O)c2sc(Nc3ccccc3)c(C#N)c2N)c1 [Compound 1-33, 4-Amino-5-(3-methoxy-benzoyl)-2-phenylamino-thiophene-3-carbonitrile]",< 10 µM,< 10 µM,< 10 µM,< 10 µM,"inhibition in vivo at 100 mg/kg [5, 14]: > 20%"
–,"Nc1nc(Nc2ccc(C(=O)O)cc2)sc1C(=O)c1ccccc1 [Compound 2-35, 4-(4-Amino-5-benzoyl-thiazol-2-ylamino)-benzoic acid]",–,–,–,–,"IC50 (PDE4D; [6]): < 10 µM; IC50 [1, 7]: < 10 µM; IC50 [2, 8]: > 10 µM; IC50 [3, 9]: < 10 µM"
< 10 µM,"Cc1c(NC2CCCC2)sc(C(=O)c2cc(-c3ccccc3)no2)c1N [Compound 1-240, (3-Amino-5-cyclopentylamino-4-methyl-thiophen-2-yl)-(3-phenyl-isoxazol-5-yl)-methanone]",< 10 µM,–,< 10 µM,< 10 µM,–
–,"N#Cc1c(Nc2ccccc2)sc(C(=O)c2ccc3ccccc3c2)c1N [Compound 1-35, 4-Amino-5-(naphthalene-2-carbonyl)-2-phenylamino-thiophene-3-carbonitrile]",< 10 µM,< 10 µM,< 10 µM,< 10 µM,"inhibition in vivo at 100 mg/kg [5, 14]: < 20%"
–,"N#Cc1c(NC2CCCC2)sc(C(=O)c2cc(-c3ccc(F)cc3)no2)c1N [Compound 1-221, 4-Amino-2-cyclopentylamino-5-[3-(4-fluoro-phenyl)-isoxazole-5-carbonyl]-thiophene-3-carbonitrile]",> 10 µM,> 10 µM,< 10 µM,< 10 µM,"inhibition in vivo at 50 mg ([5]; rat, po): < 20%"
–,"N#Cc1c(NC2CCCC2)sc(C(=O)c2cc(-c3ccccc3)no2)c1N [Compound 1-143, 4-Amino-2-cyclopentylamino-5-(3-phenyl-isoxazole-5-carbonyl)-thiophene-3-carbonitrile]",< 10 µM,< 10 µM,< 10 µM,< 10 µM,"inhibition in vivo at 50 mg ([5]; rat, ip): > 20%; inhibition in vivo at 80 mg ([5]; rat, 80 mg, po): < 20%; inhibition in vivo at 100 mg/kg ([5]; ip, rat, 100 mg/kg, ip): > 20%"
–,"COc1ccc(Nc2sc(C(=O)c3ccccc3)c(N)c2C#N)cc1 [Compound 1-32, 4-Amino-5-benzoyl-2-(4-methoxy-phenylamino)-thiophene-3-carbonitrile]",< 10 µM,< 10 µM,< 10 µM,< 10 µM,"inhibition in vivo at 100 mg/kg [5, 14]: < 20%"
